The values below come from the supplement of paper PMC10290057.

Test [1] deals with HCT116. Briefly: efficacy (fitted maximal change in viability relative to DMSO control); higher = less cytotoxic (negative = loss of viability). Particulars: 48 h.
In test [2] the test system is HCT116. In words: AC50 cell viability (CellTiter-Glo); higher = less potent. Particulars: 48 h.

Each structure is given as a SMILES string.
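Throughout, for AC50 cell viability (CellTiter-Glo): HCT116 colorectal carcinoma cells screened at five concentrations per compound, luminescent viability scaled between DMSO wells and empty wells on each plate, curves fitted per compound.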
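Throughout, for efficacy (fitted maximal change in viability relative to DMSO control): Luminescence-based viability readout, five doses per compound, normalized against on-plate DMSO and empty-well controls, followed by dose-response curve fitting for every drug.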

As for `c1ccc(CNc2nc(NCc3ccccc3)c3ccccc3n2)cc1`, the efficacy in the test with HCT116 [1] was -98.7%. In the test with HCT116 [2], this molecule registered an AC50 cell viability of 8.33 µM.

Regarding `C/C1=C/C(=C(/CNC(=O)C2=CC(=CC3=C2C=N[N]3C4CCCC4)C5=CC=C(CN6CCOCC6)C=C5)C(=O)N1)C`, the efficacy in the test with HCT116 [1] is -108%. In addition, the AC50 cell viability in the test on HCT116 [2] was found to be 20.9 µM.

For `c1ccc(CNc2nc(N3CCOc4ccccc43)nc3c2CCCC3)cc1`, the efficacy in the test on HCT116 [1] was -42.4%. The molecule also gave an AC50 cell viability in the test with HCT116 [2] of 20.9 µM.

Turning to `Cc1cc(-c2cnn3c(NC[C@H]4C[C@@](C)(O)C4)cc(Oc4cccnc4)nc23)ccc1C(=O)NC1CC1`, in the test with HCT116 [1], the efficacy was -56.6%. In the test with HCT116 [2], this molecule came in with an AC50 cell viability of 0.934 µM.

As to `Cc1cnc(Nc2ccc(F)cc2Cl)nc1-c1c[nH]c(C(=O)N[C@H](CO)c2cccc(Cl)c2)c1`, the efficacy in the test with HCT116 [1] is -115%. The molecule further showed an AC50 cell viability in the test on HCT116 [2] of 4.17 µM.

Take `Cc1cccc(-c2[nH]c(C(C)(C)C)nc2-c2ccc3c(c2)OCO3)n1`: in the test with HCT116 [1], the efficacy was -86.6%. The same molecule had an AC50 cell viability in the test with HCT116 [2] of 2.95 µM.

As to `CCn1c(-c2nonc2N)nc2cncc(CNC3CCNCC3)c21`, the efficacy in the test with HCT116 [1] is -43.9%. For the same molecule, the AC50 cell viability in the test with HCT116 [2] was found to be 10.5 µM.

On to `CN(c1ncccc1CNc1nc(Nc2ccc3c(c2)CC(=O)N3)ncc1C(F)(F)F)[S+](C)(=O)[O-]`, for which the efficacy in the test with HCT116 [1] is -62.3%. For the same molecule, in the test with HCT116 [2], the AC50 cell viability was determined as 2.63 µM.

Turning to `COc1ccc(-c2ccc3c(N4CCOCC4)nc(N4C[C@@H](C)O[C@@H](C)C4)nc3n2)cc1CO`, the efficacy with HCT116 [1] is -45.6%. Further, the AC50 cell viability in the test on HCT116 [2] amounted to 1.66 µM.

For `COc1ncc(-c2ccc3nccc(-c4ccnnc4)c3c2)cc1N[S+](=O)([O-])c1ccc(F)cc1F`, the efficacy in the test on HCT116 [1] is -74.6%. Also, the AC50 cell viability in the test on HCT116 [2] turned out to be 0.105 µM.

As to `COc1cccc2c(NCc3ccccc3)nc(-n3c(N)nc4ccccc43)nc12`, the efficacy with HCT116 [1] is -93.4%. In the test on HCT116 [2], this molecule showed an AC50 cell viability of 5.9 µM.

Regarding `COc1cc([S+](C)(=O)[O-])ccc1Nc1nc2ccc(-c3ccc(NC(=O)[C@H](C)c4ccc(F)cc4)cc3)cn2n1`, the efficacy in the test with HCT116 [1] was -30.6%. In the test on HCT116 [2], this molecule yielded an AC50 cell viability of 0.132 µM.

In the case of `C[C@@H](N)c1ccc(C(=O)Nc2ccnc3[nH]ccc23)cc1`, the efficacy in the test with HCT116 [1] is -62.4%. Also, in the test with HCT116 [2], the AC50 cell viability was 4.68 µM.

For `Cc1cccc(CC(=O)N2CCc3c2ccc(-c2cn(C)c4ncnc(N)c24)c3F)n1`, in the test on HCT116 [1], the efficacy is -43.2%. For the same molecule, the AC50 cell viability in the test with HCT116 [2] is 0.661 µM.

With `Cn1ncc(Cl)c1-c1cc(C(=O)N[C@H](CN)Cc2ccc(F)c(F)c2)sc1Cl`, the efficacy in the test with HCT116 [1] is -116%. The same molecule returned an AC50 cell viability in the test on HCT116 [2] of 16.6 µM.

`C[S+](=O)([O-])c1cccc(CNc2nc(Nc3ccc4c(c3)CCC(=O)N4)ncc2C(F)(F)F)c1`: in the test with HCT116 [1], the efficacy was -71.5%. The molecule further yielded an AC50 cell viability in the test with HCT116 [2] of 5.9 µM.

Consider `O=C(c1ccc(F)cc1)N1CCC[C@H](c2nc(-c3ccc(F)cc3)no2)C1`, for which the efficacy in the test on HCT116 [1] was -35.7%. This molecule also returned an AC50 cell viability with HCT116 [2] of 14.8 µM.

Consider `Nc1nc(NCCNc2ncc(-n3ccnc3)c(-c3ccc(Cl)cc3Cl)n2)ccc1[N+](=O)[O-]`, for which the efficacy in the test on HCT116 [1] was -32%. The AC50 cell viability with HCT116 [2] is 2.09 µM.

As to `N#Cc1ccc(COC[C@H]2O[C@@H](n3c(NCc4ccc(Cl)c(Cl)c4)nc4c(N)ncnc43)[C@H](O)[C@@H]2O)cc1`, the efficacy with HCT116 [1] is -99.6%. The AC50 cell viability in the test on HCT116 [2] was 16.6 µM.

Turning to `NCC(=O)Nc1ccc(-n2nc(C(F)(F)F)cc2-c2ccc3c(ccc4ccccc43)c2)cc1`, the efficacy in the test with HCT116 [1] was -124%. The same molecule displayed an AC50 cell viability in the test with HCT116 [2] of 13.2 µM.

With `OC1=C(Cl)C=C(N\C2=C(\C(=O)NC2=O)C3=C(C=CC=C3)[N+]([O-])=O)C=C1`, the efficacy in the test with HCT116 [1] is -54.8%. The molecule also registered an AC50 cell viability in the test with HCT116 [2] of 20.9 µM.

With `OCCCNc1cc(-c2ccnc(Nc3cccc(Cl)c3)n2)ccn1`, the efficacy with HCT116 [1] is -58.5%. In the test with HCT116 [2], this molecule showed an AC50 cell viability of 0.059 µM.
